One assay has as its target BRD4 (Homo sapiens, UniProt O60885). The experiment in a line: BRD4 degradation in HeLa cells, immunoblot. The assay is classed as cell-based.
The test system of another assay is ERK1/2. The experiment in a line: ERK1/2 degradation in A375 cells, immunoblot. The following applies: for ERK1/2 degradation: then Tz-thalidomide-Me 10 μM 18 h. The assay is classed as cell-based.

For the molecule `Cc1nnc(-c2ccc(CNC(=O)CCCCCOc3cccc4c3C(=O)N(C3CCC(=O)N(C)C3=O)C4=O)cc2)nn1` (stereo not drawn) [Tz-thalidomide-Me], the BRD4 level result on BRD4 (JQ1-TCO 10 μM 18 h, then Tz-thalidomide-Me 10 μM 18 h) is listed as “remained unchanged”. Besides, the ERK1/2 degradation entry is given as “insignificant degradation of ERK1/2” in the assay on ERK1/2 (Probe 1 4 h) and “reduced ERK1/2 degradation” with ERK1/2 (Probe 1 4 h, listed as methyl-Tz-thalidomide).

As to `CC(C)C[C@H](NC(=O)[C@H](CCc1ccccc1)NC(=O)CN1CCOCC1)C(=O)N[C@@H](Cc1ccccc1)C(=O)N[C@@H](CC(C)C)C(=O)[C@@]1(C)CO1` [carfilzomib], the “BRD4 levels with proteasome inhibitor” value at BRD4 (4-h pretreatment with carfilzomib 1 μM, JQ1-TCO and Tz-thalidomide treatment) is given as “BRD4 levels were rescued”. Further, the “ERK1/2 degradation with proteasome inhibitor” value in the assay on ERK1/2 (4-h pretreatment with carfilzomib 1 μM, Probe 1 and Tz-thalidomide) is “ERK1/2 degradation was prevented”.

With `O=C1CCC(N2C(=O)c3ccccc3C2=O)C(=O)N1` (stereo not drawn) [thalidomide], in the assay with ERK1/2 (Probe 1 4 h, then untagged thalidomide 10 μM and Tz-thalidomide 1 μM 18 h), the “ERK1/2 degradation, competition” value is “degradation of ERK1/2 was suppressed”.

For the origin of these results see publication PMC5200928 (ACS Central Science, 2016).
